Laboratory results published in US9023789B2, “Amylin analogs and pharmaceutical compositions thereof” (Novo Nordisk A/S, priority 2012, dated 2015).
Numbered stars: 1 amine (or outer) side, 2 acyl side, 3 side chain; on linkers, the order of the positions; unused ones are H or OH. Bridge positions count the residues as written; N and C are the ends. Side chains are listed from the residue outwards. Peptide text beside a SMILES is read from it. * marks the point of attachment. C20 diacid = O=C(O)CCCCCCCCCCCCCCCCCCC(=O)*; γGlu = O=C(O)[C@H](CCC(=O)[*:2])N[*:1]; AEEA = NCCOCCOCC(=O)O

Key:
[1] = tested on: Sprague Dawley (SD) rats; experiment: ASSAY (I) efficacy testing on appetite (food intake) using an ad libitum fed rat model; assay type: in vivo; details: rat
Summary of the method: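 Ad libitum fed SD rats (200–250 g) were housed singly on a reversed light/dark cycle and given one 0.01–3 mg/kg dose ip, po or sc just before lights-off, with 5–8 per dose group plus vehicle controls. Food intake was recorded hourly for 7 h, then at 24 h and sometimes 48 h; Grubbs outliers were excluded.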

[2] = ASSAY (III) ThT fibrillation assay for physical stability; assay type: physicochemical
Summary of the method: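 Formulations with 1 μM ThT, pH adjusted as required, incubated at 37 °C with 960 rpm orbital shaking; fluorescence (ex 444/em 485 nm) read every 20 min. Fibrillation reported as mean ThT fluorescence ± SD of 4–8 replicates at time points; polypeptide concentration measured by reverse-phase HPLC before and after, post-centrifugation.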

Row | ThT pH 4.0 lag time (h) [2] | SMILES | Food intake reduction 0-24 h 30 nmol/kg (%) [1] | Food intake reduction 24-48 h 30 nmol/kg (%) [1] | Food intake reduction 0-24 h 3 nmol/kg (%) [1] | Food intake reduction 24-48 h 3 nmol/kg (%) [1]
1 | 7 h | CC[C@H](C)[C@H](NC(=O)[C@H](C)NC(=O)CNC(=O)[C@H](Cc1ccccc1)NC(=O)[C@H](CC(N)=O)NC(=O)[C@@H]1CCCN1C(=O)[C@H](CO)NC(=O)[C@H](CO)NC(=O)[C@H](Cc1c[nH]cn1)NC(=O)[C@H](CCCNC(=N)N)NC(=O)[C@H](CC(C)C)NC(=O)[C@H](Cc1ccccc1)NC(=O)[C@H](CCC(=O)O)NC(=O)[C@H](C)NC(=O)[C@H](CC(C)C)NC(=O)[C@H](CCCNC(=N)N)NC(=O)[C@H](CCC(N)=O)NC(=O)[C@@H](NC(=O)[C@H](C)NC(=O)[C@@H]1CSSC[C@H](NC(=O)[C@@H](N)CCCCNC(=O)CC[C@H](NC(=O)CCCCCCCCCCCCCCCCCCC(=O)O)C(=O)O)C(=O)N[C@@H](CC(N)=O)C(=O)N[C@@H]([C@@H](C)O)C(=O)N[C@@H](C)C(=O)N[C@@H]([C@@H](C)O)C(=O)N1)[C@@H](C)O)C(=O)N1CCC[C@H]1C(=O)N[C@@H](CO)C(=O)N[C@@H](CO)C(=O)N[C@H](C(=O)N[C@@H](CC(N)=O)C(=O)N[C@H](C(=O)NCC(=O)N[C@@H](CO)C(=O)N[C@@H](CCCNC(=N)N)C(=O)N[C@H](C(=O)N[C@@H](Cc1ccc(O)cc1)C(N)=O)[C@@H](C)O)C(C)C)[C@@H](C)O [Example 51] (H-K([γGlu-C20 diacid])CNTATCATQRLAEFLRHSSPNFGAIPSSTNVGSRTY-NH2; disulfide 2-7 (inferred); N-terminus assumed) | 52% | 30% |  | 
2 | 45 h | CC[C@H](C)[C@H](NC(=O)[C@H](C)NC(=O)CNC(=O)[C@H](Cc1ccccc1)NC(=O)[C@H](CC(N)=O)NC(=O)[C@@H]1CCCN1C(=O)[C@H](CO)NC(=O)[C@H](CO)NC(=O)[C@H](Cc1c[nH]cn1)NC(=O)[C@H](CCCNC(=N)N)NC(=O)[C@H](CC(C)C)NC(=O)[C@H](Cc1ccccc1)NC(=O)[C@H](Cc1c[nH]cn1)NC(=O)[C@H](C)NC(=O)[C@H](CC(C)C)NC(=O)[C@H](CCCNC(=N)N)NC(=O)[C@H](CCC(N)=O)NC(=O)[C@@H](NC(=O)[C@H](C)NC(=O)[C@@H]1CSSC[C@H](NC(=O)[C@@H](N)CCCCNC(=O)COCCOCCNC(=O)CC[C@H](NC(=O)CCCCCCCCCCCCCCCCCCC(=O)O)C(=O)O)C(=O)N[C@@H](CC(N)=O)C(=O)N[C@@H]([C@@H](C)O)C(=O)N[C@@H](C)C(=O)N[C@@H]([C@@H](C)O)C(=O)N1)[C@@H](C)O)C(=O)N1CCC[C@H]1C(=O)N[C@@H](CO)C(=O)N[C@@H](CO)C(=O)N[C@H](C(=O)N1CCC[C@H]1C(=O)N[C@H](C(=O)NCC(=O)N[C@@H](CO)C(=O)N[C@@H](CC(N)=O)C(=O)N[C@H](C(=O)N[C@@H](Cc1ccc(O)cc1)C(N)=O)[C@@H](C)O)C(C)C)[C@@H](C)O [Example 61] (H-K([AEEA-γGlu-C20 diacid])CNTATCATQRLAHFLRHSSPNFGAIPSSTPVGSNTY-NH2; disulfide 2-7 (inferred)) | 53% | 18% |  | 
3 | 45 h | CC[C@H](C)[C@H](NC(=O)[C@H](C)NC(=O)CNC(=O)[C@H](Cc1ccccc1)NC(=O)[C@H](CC(N)=O)NC(=O)[C@@H]1CCCN1C(=O)[C@H](CO)NC(=O)[C@H](CO)NC(=O)[C@H](Cc1c[nH]cn1)NC(=O)[C@H](CCCNC(=N)N)NC(=O)[C@H](CC(C)C)NC(=O)[C@H](Cc1ccccc1)NC(=O)[C@H](CC(=O)O)NC(=O)[C@H](C)NC(=O)[C@H](CC(C)C)NC(=O)[C@H](CCCNC(=N)N)NC(=O)[C@H](CCC(N)=O)NC(=O)[C@@H](NC(=O)[C@H](C)NC(=O)[C@@H]1CSSC[C@H](NC(=O)[C@@H](N)CCCCNC(=O)CC[C@H](NC(=O)CC[C@H](NC(=O)CCCCCCCCCCCCCCCCCCC(=O)O)C(=O)O)C(=O)O)C(=O)N[C@@H](CC(N)=O)C(=O)N[C@@H]([C@@H](C)O)C(=O)N[C@@H](C)C(=O)N[C@@H]([C@@H](C)O)C(=O)N1)[C@@H](C)O)C(=O)N1CCC[C@H]1C(=O)N[C@@H](CO)C(=O)N[C@@H](CO)C(=O)N[C@H](C(=O)N[C@@H](CC(N)=O)C(=O)N[C@H](C(=O)NCC(=O)N1CCC[C@H]1C(=O)N[C@@H](CCC(=O)O)C(=O)N[C@H](C(=O)N[C@@H](Cc1ccc(O)cc1)C(N)=O)[C@@H](C)O)C(C)C)[C@@H](C)O [Example 122] (H-K([γGlu-γGlu-C20 diacid])CNTATCATQRLADFLRHSSPNFGAIPSSTNVGPETY-NH2; disulfide 2-7 (inferred); N-terminus assumed) |  |  | 50% | 50%
4 | 41 h | CC[C@H](C)[C@H](NC(=O)[C@H](C)NC(=O)CNC(=O)[C@H](Cc1ccccc1)NC(=O)[C@H](CC(N)=O)NC(=O)[C@@H]1CCCN1C(=O)[C@H](CO)NC(=O)[C@H](CO)NC(=O)[C@H](Cc1c[nH]cn1)NC(=O)[C@H](CCCNC(=N)N)NC(=O)[C@H](CC(C)C)NC(=O)[C@H](Cc1ccccc1)NC(=O)[C@H](CC(=O)O)NC(=O)[C@H](C)NC(=O)[C@H](CC(C)C)NC(=O)[C@H](CCCNC(=N)N)NC(=O)[C@H](CCC(N)=O)NC(=O)[C@@H](NC(=O)[C@H](C)NC(=O)[C@@H]1CSSC[C@H](NC(=O)[C@@H](N)CCCCNC(=O)CC[C@H](NC(=O)CC[C@H](NC(=O)CCCCCCCCCCCCCCCCCCC(=O)O)C(=O)O)C(=O)O)C(=O)N[C@@H](CC(N)=O)C(=O)N[C@@H]([C@@H](C)O)C(=O)N[C@@H](C)C(=O)N[C@@H]([C@@H](C)O)C(=O)N1)[C@@H](C)O)C(=O)N1CCC[C@H]1C(=O)N[C@@H](CO)C(=O)N[C@@H](CO)C(=O)N[C@H](C(=O)N[C@@H](CC(N)=O)C(=O)N[C@H](C(=O)NCC(=O)N[C@@H](CO)C(=O)N[C@@H](CCCNC(=N)N)C(=O)N[C@H](C(=O)N[C@@H](Cc1ccc(O)cc1)C(N)=O)[C@@H](C)O)C(C)C)[C@@H](C)O [Example 52, N-ε-1-{(S)-4-carboxy-4-[(S)-4-carboxy-4-(19-carboxynonadecanoylamino)butyrylamino]butyryl}-[Asp14,Arg17,Pro21,Pro27,Arg35]-human amylin] | 63% | 50% | 25% | 15%
5 | 45 h | CC[C@H](C)[C@H](NC(=O)[C@H](C)NC(=O)CNC(=O)[C@H](Cc1ccccc1)NC(=O)[C@H](CC(N)=O)NC(=O)[C@@H]1CCCN1C(=O)[C@H](CO)NC(=O)[C@H](CO)NC(=O)[C@H](Cc1c[nH]cn1)NC(=O)[C@H](CCCNC(=N)N)NC(=O)[C@H](CC(C)C)NC(=O)[C@H](Cc1ccccc1)NC(=O)[C@H](CCC(=O)O)NC(=O)[C@H](C)NC(=O)[C@H](CC(C)C)NC(=O)[C@H](CCCNC(=N)N)NC(=O)[C@H](CCC(N)=O)NC(=O)[C@@H](NC(=O)[C@H](C)NC(=O)[C@@H]1CSSC[C@H](NC(=O)[C@@H](N)CCCCNC(=O)CC[C@H](NC(=O)CC[C@H](NC(=O)CCCCCCCCCCCCCCCCCCC(=O)O)C(=O)O)C(=O)O)C(=O)N[C@@H](CC(N)=O)C(=O)N[C@@H]([C@@H](C)O)C(=O)N[C@@H](C)C(=O)N[C@@H]([C@@H](C)O)C(=O)N1)[C@@H](C)O)C(=O)N1CCC[C@H]1C(=O)N[C@@H](CO)C(=O)N[C@@H](CO)C(=O)N[C@H](C(=O)N[C@@H](CC(N)=O)C(=O)N[C@H](C(=O)NCC(=O)N[C@@H](CCCNC(=N)N)C(=O)N[C@@H](CC(N)=O)C(=O)N[C@H](C(=O)N[C@@H](Cc1ccc(O)cc1)C(N)=O)[C@@H](C)O)C(C)C)[C@@H](C)O [Example 88] (H-K([γGlu-γGlu-C20 diacid])CNTATCATQRLAEFLRHSSPNFGAIPSSTNVGRNTY-NH2; disulfide 2-7) | 31% | 15% |  | 
6 | 10 h | CC[C@H](C)[C@H](NC(=O)[C@H](C)NC(=O)CNC(=O)[C@H](Cc1ccccc1)NC(=O)[C@H](CC(N)=O)NC(=O)[C@@H]1CCCN1C(=O)[C@H](CO)NC(=O)[C@H](CO)NC(=O)[C@H](Cc1c[nH]cn1)NC(=O)[C@H](CCCNC(=N)N)NC(=O)[C@H](CC(C)C)NC(=O)[C@H](Cc1ccccc1)NC(=O)[C@H](CC(N)=O)NC(=O)[C@H](C)NC(=O)[C@H](CC(C)C)NC(=O)[C@H](CCCNC(=N)N)NC(=O)[C@H](CCC(N)=O)NC(=O)[C@@H](NC(=O)[C@H](C)NC(=O)[C@@H]1CSSC[C@H](NC(=O)[C@@H](N)CCCCNC(=O)CC[C@H](NC(=O)CCCCCCCCCCCCCCC(=O)O)C(=O)O)C(=O)N[C@@H](CC(N)=O)C(=O)N[C@@H]([C@@H](C)O)C(=O)N[C@@H](C)C(=O)N[C@@H]([C@@H](C)O)C(=O)N1)[C@@H](C)O)C(=O)N1CCC[C@H]1C(=O)N[C@@H](CO)C(=O)N[C@@H](CO)C(=O)N[C@H](C(=O)N[C@@H](CC(N)=O)C(=O)N[C@H](C(=O)NCC(=O)N[C@@H](Cc1c[nH]cn1)C(=O)N[C@@H](CC(N)=O)C(=O)N[C@H](C(=O)N[C@@H](Cc1ccc(O)cc1)C(N)=O)[C@@H](C)O)C(C)C)[C@@H](C)O [Example 111] | 17% | 0% |  | 
